Experimental data from patent US7734426B2 (priority 1999, dated 2010).
“Also recorded” adds a separate entry of the source. Where no end group is shown, it is not given here.

test system: CA1 region of hippocampal slices; conditions: cited from earlier work

| Molecule | effect on synaptic transmission |
| --- | --- |
| O=CC[C@@H](O)[C@H](O)[C@H](O)CO [2-DG, 2-deoxy-D-glucose] | reversibly suppresses synaptic transmission |

test system: hippocampal interneurons; conditions: cited from earlier work

| Molecule | effect on action potential frequency / currents |
| --- | --- |
| CCK-8S (DYMGWMDF; not fully specified; UniProt P06307 96-103, looked up) | increased action potential frequency or generated inward currents |

test system: CNS stem cells; conditions: cited from earlier work

| Molecule | neuronal differentiation, % of the cells |
| --- | --- |
| platelet-derived growth factor [PDGF] | 90% |

test system: CA1 pyramidal cells in hippocampal slices; conditions: cited from earlier work

| Molecule | changes in the action potential |
| --- | --- |
| C[N+](C)(C)CCOC(N)=O [carbachol] | several reversible changes in the action potential |

test system: NG-108-15 Cells; type: cell-based; conditions: not given

| Molecule | Effect | Onset Time | inhibit repetitive firing | effect on the AP |
| --- | --- | --- | --- | --- |
| C=C[C@H]1C[N@@]2CC[C@H]1C[C@H]2[C@H](O)c1ccnc2ccc(OC)cc12 [quinine] | non-specific K^+ channel | <60 s | quinine* | – |
| COc1ccc(CCN(C)CCCC(C#N)(c2ccc(OC)c(OC)c2)C(C)C)cc1OC (stereo not drawn) [verapamil] | L-type Ca^2+ channel | <60 s | verapamil* | – |
| C[C@@H]1O[C@@H](O[C@H]2C[C@@H](O)[C@]3(CO)[C@H]4[C@H](O)C[C@]5(C)[C@@H](C6=CC(=O)OC6)CC[C@]5(O)[C@@H]4CC[C@]3(O)C2)[C@H](O)[C@H](O)[C@H]1O [ouabain] | Na^+—Ca^2+ pump; also recorded: inhibition | <60 s | ouabain* | – |
| C[N+](C)(C)CCOC(N)=O [carbachol] | muscarinic receptor | <60 s | carbachol* | – |
| C=C(C=O)C[C@@H]1C[C@H](O)[C@]2(C)O[C@@H]3C[C@@H]4O[C@@H]5C[C@]6(C)O[C@]7(C)CC[C@@H]8O[C@@H]9C[C@]%10(C)O[C@@H]%11C(C)=CC(=O)O[C@H]%11C[C@H]%10O[C@H]9C[C@@H](C)[C@H]8O[C@H]7C[C@H]6O[C@H]5C/C=C\[C@H]4O[C@H]3C[C@H]2O1 [brevetoxin] | Na^+ channel | <60 s | brevetoxin* | – |
| Charybdotoxin | Kca “BK”-type channel | <60 s | Charybdotoxin* | – |
| NC1=N[C@H](O)[C@H]2[C@H]3O[C@]4(O)O[C@@H]([C@@H](O)[C@@]2(N1)[C@@H]4O)[C@]3(O)CO [tetrodotoxin] | Na^+ channel | <60 s | tetrodotoxin* | affected the AP |
| N=C(N)NC(=O)c1nc(Cl)c(N)nc1N [amiloride] | L-type Ca^2+ channel | <60 s | amiloride* | – |
| COC(=O)C1=C(C)NC(C)=C(C(=O)OC)C1c1ccccc1[N+](=O)[O-] [nifedipine] | – | – | nifedipine* | – |
